In patent publication US6706493B2, “DNA encoding a cholecystokinin receptor” (The United States of America as represented by the …, priority 1992, dated 2004):
Where no end group is shown, it is not given here.

How the values were obtained:
CCKA receptor = biological target: T1, CCKA receptor (Rattus norvegicus, UniProt P30551); assay: Ligand-induced chloride current in Xenopus oocytes injected with rat CCKA receptor mRNA; format: cell-based; conditions: oocytes voltage clamped at -70 mV, 1 and 2 days after injection; FIG. 5A: 1 μM CCK-8, 1 μM gastrin-releasing peptide, 4 μM substance P
T1 construct: expressed in transfected cells; host or cells: Xenopus oocytes injected with in vitro transcribed RNA (clone nt 5 to 1506 in pcDNA-1)
T1 sequence (P30551 1-444): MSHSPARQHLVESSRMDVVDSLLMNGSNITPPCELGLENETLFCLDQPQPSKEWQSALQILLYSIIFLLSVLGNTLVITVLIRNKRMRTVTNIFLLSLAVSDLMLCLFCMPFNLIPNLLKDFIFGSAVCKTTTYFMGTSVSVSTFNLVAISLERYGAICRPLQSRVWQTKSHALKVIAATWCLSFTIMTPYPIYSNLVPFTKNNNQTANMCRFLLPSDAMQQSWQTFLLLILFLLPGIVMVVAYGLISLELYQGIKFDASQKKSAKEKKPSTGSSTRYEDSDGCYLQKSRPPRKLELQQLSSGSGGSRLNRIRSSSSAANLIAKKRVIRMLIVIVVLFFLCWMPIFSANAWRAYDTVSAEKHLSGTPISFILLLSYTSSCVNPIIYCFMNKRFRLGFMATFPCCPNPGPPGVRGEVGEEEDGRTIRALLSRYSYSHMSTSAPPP
Method: FIGS. 5A and 5B. Expression of the CCKA receptor in Xenopus oocytes. Ligand, induced chloride currents measured in the same oocytes one (A) and two (B) days after injection of mRNA (25 ng) in vitro transcribed from CCKA receptor cDNA cloned from rat pancreas. A. Response to agonists.
DNA was in vitro transcribed using T7 RNA polymerase from a CCK receptor clone template (5 to 1506, FIG. 1, SEQ NO:13) in pcDNA-1 (5 μg linearized with Apa 1) in the presence of the cap analog m^7G(5′)ppp(5′)G as recommended by the manufacturer (Promega). Xenopus oocytes were injected with 50 nl of approximately 25 ng of transcribed RNA. At 1-2 days, oocytes were voltage clamped at −70 mV, ligands were applied rapidly and directly to the constantly perfused bath and the ligand dependent Cl^− current measured.

substance P receptor = biological target: T2, substance P receptor (Rattus norvegicus, UniProt P14600); assay: L-364,718 on SP response in oocytes injected with SP receptor mRNA; format: cell-based
T2 construct: expressed in transfected cells; host or cells: Xenopus oocytes injected with receptor mRNA
T2 sequence (P14600 whole entry): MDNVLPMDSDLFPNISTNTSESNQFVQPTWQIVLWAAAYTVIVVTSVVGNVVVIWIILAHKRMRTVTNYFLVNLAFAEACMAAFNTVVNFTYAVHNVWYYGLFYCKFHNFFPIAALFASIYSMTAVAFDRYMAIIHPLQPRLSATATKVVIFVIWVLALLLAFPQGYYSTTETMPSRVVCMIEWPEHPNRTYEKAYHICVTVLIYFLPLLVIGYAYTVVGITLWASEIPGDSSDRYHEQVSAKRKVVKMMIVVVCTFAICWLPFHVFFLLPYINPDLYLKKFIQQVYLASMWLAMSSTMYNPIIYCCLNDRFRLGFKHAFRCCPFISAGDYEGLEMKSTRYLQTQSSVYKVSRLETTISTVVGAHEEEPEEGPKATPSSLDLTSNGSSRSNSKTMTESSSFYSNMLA
Excerpt: (§1) Inhibition was specific for CCKA receptors (i.e., there was no inhibition of SP or ACh response in oocytes injected with their respective receptor mRNAs).

acetylcholine receptor = assay: L-364,718 on ACh response in oocytes injected with ACh receptor mRNA; format: cell-based
Excerpt: as §1

CCKB receptor = biological target: T3, CCKB receptor (Rattus norvegicus, UniProt P30553); conditions: COS-7 cells, rat CCKB receptor cDNA, 50 pM radioligand
T3 sequence (P30553 1-452): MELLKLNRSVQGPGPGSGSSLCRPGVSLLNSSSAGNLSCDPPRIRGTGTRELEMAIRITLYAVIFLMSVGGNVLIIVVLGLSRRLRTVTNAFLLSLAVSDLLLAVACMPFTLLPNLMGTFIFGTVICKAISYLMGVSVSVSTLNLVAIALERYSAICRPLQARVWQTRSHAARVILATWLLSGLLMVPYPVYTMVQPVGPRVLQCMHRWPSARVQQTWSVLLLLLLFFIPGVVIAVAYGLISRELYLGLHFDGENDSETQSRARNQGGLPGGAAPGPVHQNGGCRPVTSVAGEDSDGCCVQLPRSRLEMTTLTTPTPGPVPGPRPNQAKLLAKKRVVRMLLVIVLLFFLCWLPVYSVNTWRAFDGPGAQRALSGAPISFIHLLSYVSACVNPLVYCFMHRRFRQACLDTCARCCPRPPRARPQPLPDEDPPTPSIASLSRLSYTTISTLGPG
Method: Each experiment was performed in duplicate and the results given are the means from at least two separate experiments.
Two micrograms of PCDL-SRα containing either the CCKA coding region insert subcloned at an Xba 1 site in the sense orientation or the CCKB insert subcloned at an Eco R1 site in the sense orientation were transfected into a near confluent 100 mm tissue culture plate containing approximately 1×10^6 COS-7 cells using a DEAE/dextran method. Approximately 48 hours post transfection, the cells were washed twice with phosphate buffered saline (PBS), pH 7.4, 0.1% BSA at 4° C., scraped from the plate in Dulbeccols Modified Eagle's Medium (DMEM), 0.1% BSA, 4° C., centrifuged at 400×G, and resuspended at approximately 3-105 cells per ml in DMEM, 0.1% BSA, 4° C. […] Cells were subsequently washed three times with 2 ml PBS, 0.1% BSA, 4° C. by filtration on glass filters (Whatman GF/B) using a suction manifold (Millipore). Filters were assayed for gamma radioactivity (Packard, Auto-Gamma).

## substance P
CCKA receptor
  response of oocytes to agonist (ligand dependent Cl- current): not

## CN1C(=O)[C@@H](NC(=O)c2cc3ccccc3[nH]2)N=C(c2ccccc2)c2ccccc21 [L-364,718]
Substance P receptor
  inhibition of SP response: no inhibition
Acetylcholine receptor
  inhibition of ACh response: no inhibition

## gastrin-releasing peptide (VPLPAGGGTVLTKMYPRGNHWAVGHLM; ends and bridges not checked; UniProt P07492 24-50, looked up)
CCKA receptor
  response of oocytes to agonist (ligand dependent Cl- current): not

## Cc1cccc(NC(=O)N[C@@H]2N=C(c3ccccc3)c3ccccc3N(C)C2=O)c1 [L-365,260]
CCKB receptor
  potency at inhibiting 125I-BH-CCK-8 binding relative to L-364,718: 10-100 fold
